Experimental data from DBAASP.
In brackets after ≈: the same amount, converted by molar mass.

Columns and labels:
Experiment in all cases: ≥ marks a high value that may be exact or a test limit, other limits are often not marked, values filed in µg/mL are converted to µM
Enterococcus faecalis = test system: Enterococcus faecalis
Escherichia coli W3110 = test system: Escherichia coli W3110
[1] = test system: Pseudomonas aeruginosa PAK
Staphylococcus aureus = test system: Staphylococcus aureus
[2] = test system: Streptococcus mutans UA159
[3] = test system: Streptococcus sanguinis NY101
Bacillus cereus AS1.126 = test system: Bacillus cereus AS1.126
[4] = test system: Enterobacter cloacae CGMCC 1.58
[5] = test system: Enterococcus faecalis CGMCC 1.595
[6] = test system: Enterococcus faecium CGMCC 1.2334
Escherichia coli AS1.349 = test system: Escherichia coli AS1.349
[7] = test system: Klebsiella aerogenes CGMCC 1.876
[8] = test system: Klebsiella pneumoniae subsp. pneumoniae CGMCC 1.176
[9] = test system: Lactococcus lactis AS1.1690
[10] = test system: Pseudomonas aeruginosa CGMCC 1.860
[11] = test system: Staphylococcus aureus AS1.72
[12] = test system: Klebsiella pneumoniae ATCC BAA-1705
Salmonella sp. = test system: Salmonella sp.
[13] = test system: Acinetobacter baumannii MTCC 9829
[14] = test system: Alcaligenes faecalis MTCC 1937
[15] = test system: Alkalihalobacillus alcalophilus MTCC 860
[16] = test system: Bordetella bronchiseptica MTCC 6837
[17] = test system: Citrobacter freundii MTCC 1658
[18] = test system: Citrobacter koseri MTCC 1657
[19] = test system: Corynebacterium glutamicum MTCC 2679
[20] = test system: Enterococcus faecalis MTCC 439
[21] = test system: Escherichia coli K12 MG1655
[22] = test system: Haemophilus influenzae MTCC 621
[23] = test system: Klebsiella aerogenes MTCC 111
[24] = test system: Klebsiella oxytoca MTCC 2275
[25] = test system: Klebsiella pneumoniae MTCC 7407
[26] = test system: Pluralibacter gergoviae MTCC 3826
[27] = test system: Proteus mirabilis MTCC 3158
[28] = test system: Proteus vulgaris MTCC 1771
[29] = test system: Pseudomonas aeruginosa MTCC 3542
[30] = test system: Salmonella enterica MTCC 9844
[31] = test system: Salmonella enterica subsp. enterica serovar Typhimurium ATCC 14028
[32] = test system: Shigella boydii MTCC 11947
[33] = test system: Shigella flexneri MTCC 1457
[34] = test system: Staphylococcus aureus MTCC 3160
[35] = test system: Staphylococcus haemolyticus MTCC 3383
[36] = test system: Stenotrophomonas maltophilia MTCC 1890
[37] = test system: Vibrio cholerae MTCC 3904

Structure (SMILES): CC(C)C[C@H](NC(=O)[C@H](Cc1cnc[nH]1)NC(=O)[C@H](Cc1ccccc1)NC(=O)[C@H](Cc1cnc[nH]1)NC(=O)[C@@H](N)Cc1ccccc1)C(=O)N[C@@H](Cc1cnc[nH]1)C(=O)N[C@@H](Cc1ccccc1)C(N)=O [FHFHLHF]
- MIC (Enterococcus faecalis): 16.3 µM (≈ 16 µg/mL)
- MIC (Escherichia coli W3110): 8.13 µM (≈ 7.99 µg/mL)
- MIC [1]: 16.3 µM (≈ 16 µg/mL)
- MIC (Staphylococcus aureus): 32.5 µM (≈ 32 µg/mL)
- MIC [2]: 8.13 µM (≈ 7.99 µg/mL)
- MIC [3]: 16.3 µM (≈ 16 µg/mL)

Structure (SMILES): CC[C@H](C)[C@H](N)C(=O)N[C@@H](CCCCN)C(=O)N[C@@H](CCCCN)C(=O)N[C@H](C(=O)N[C@@H](CC(C)C)C(=O)N[C@@H](CO)C(=O)N[C@@H](CCCCN)C(=O)N[C@H](C(=O)N[C@@H](CCCCN)C(=O)N[C@@H](CCCCN)C(=O)N[C@@H](CC(C)C)C(=O)N[C@@H](CC(C)C)C(N)=O)[C@@H](C)CC)[C@@H](C)CC [IKKILSKIKKLL]
- MIC (Bacillus cereus AS1.126): 3.12 µM (≈ 4.44 µg/mL)
- MIC [4]: 6.25 µM (≈ 8.9 µg/mL)
- MIC [5]: 6.25 µM (≈ 8.9 µg/mL)
- MIC [6]: 6.25 µM (≈ 8.9 µg/mL)
- MIC (Escherichia coli AS1.349): 3.12 µM (≈ 4.44 µg/mL)
- MIC [7]: 6.25 µM (≈ 8.9 µg/mL)
- MIC [8]: 6.25 µM (≈ 8.9 µg/mL)
- MIC [9]: 3.12 µM (≈ 4.44 µg/mL)
- MIC [10]: 3.12 µM (≈ 4.44 µg/mL)
- MIC [11]: 3.12 µM (≈ 4.44 µg/mL)

Structure (SMILES): CC[C@H](C)[C@H](N)C(=O)N[C@@H](Cc1c[nH]c2ccccc12)C(=O)N[C@@H](Cc1c[nH]c2ccccc12)C(=O)N[C@@H](C)C(=O)N[C@@H](CCCCN)C(=O)N[C@@H](Cc1c[nH]c2ccccc12)C(=O)NCC(=O)N[C@@H](CC(C)C)C(=O)N[C@@H](CCCCN)C(=O)N[C@@H](CC(C)C)C(=O)N[C@@H](CC(C)C)C(=O)N[C@@H](CCCN=C(N)N)C(=O)N[C@@H](Cc1ccc(O)cc1)C(=O)N[C@@H](CCCN=C(N)N)C(=O)N[C@@H](CCCN=C(N)N)C(=O)N[C@H](C(=O)N[C@@H](Cc1ccc(O)cc1)C(=O)O)[C@@H](C)CC [IWWAKWGLKLLRYRRIY]
- MIC (Escherichia coli W3110): 1 µM (≈ 2.32 µg/mL)
- MIC [12]: 8 µM (≈ 18.6 µg/mL)

Structure (SMILES): CC(C)C[C@H](NC(=O)[C@H](CCCCN)NC(=O)[C@H](CC(C)C)NC(=O)[C@@H](N)CC(C)C)C(=O)N[C@@H](Cc1ccccc1)C(=O)N[C@@H](Cc1ccccc1)C(=O)N1CCC[C@H]1C(=O)N[C@@H](Cc1ccccc1)C(=O)N[C@@H](CC(C)C)C(=O)N[C@@H](CCC(=O)O)C(=O)N[C@H](C(=O)NCC(=O)N[C@@H](CCC(=O)O)C(=O)O)[C@@H](C)O [LLKLFFPFLETGE]
- MIC (Salmonella sp.): ≥ 256 µM

Structure (SMILES): CC(C)C[C@H](NC(=O)CNC(=O)[C@H](CC(C)C)NC(=O)[C@H](CCCCN)NC(=O)[C@H](C)NC(=O)[C@H](Cc1c[nH]c2ccccc12)NC(=O)[C@H](Cc1c[nH]c2ccccc12)NC(=O)[C@@H](N)Cc1c[nH]c2ccccc12)C(=O)N[C@@H](CCCCN)C(=O)N[C@@H](CC(C)C)C(=O)N[C@@H](CC(C)C)C(=O)N[C@@H](CCCN=C(N)N)C(=O)N[C@@H](Cc1ccc(O)cc1)C(=O)N[C@@H](CCCN=C(N)N)C(=O)N[C@@H](CCCN=C(N)N)C(=O)N[C@@H](Cc1c[nH]c2ccccc12)C(=O)N[C@@H](Cc1ccc(O)cc1)C(=O)O [WWWAKLGLKLLRYRRWY]
- MIC (Escherichia coli W3110): 4 µM (≈ 9.58 µg/mL)
- MIC [12]: 8 µM (≈ 19.2 µg/mL)

Structure (SMILES): CC[C@H](C)[C@H](NC(=O)[C@H](CCCCN)NC(=O)[C@H](CCCCN)NC(=O)[C@H](C)NC(=O)[C@H](CCCCN)NC(=O)[C@H](CO)NC(=O)[C@H](CCCN=C(N)N)NC(=O)[C@H](Cc1c[nH]c2ccccc12)NC(=O)[C@H](CCCCN)NC(=O)[C@H](CCCCN)NC(=O)[C@H](Cc1c[nH]c2ccccc12)NC(=O)[C@H](CCCN=C(N)N)NC(=O)[C@H](CCCCN)NC(=O)[C@@H](N)Cc1ccc(O)cc1)C(=O)N[C@@H](CC(C)C)C(=O)O [YKRWKKWRSKAKKIL]
- MIC [13]: 7.92 µM (≈ 16 µg/mL)
- MIC [14]: ≥ 63.4 µM
- MIC [15]: 31.7 µM (≈ 64 µg/mL)
- MIC [16]: 3.96 µM (≈ 8 µg/mL)
- MIC [17]: ≥ 63.4 µM
- MIC [18]: 7.92 µM (≈ 16 µg/mL)
- MIC [19]: 0.99 µM (≈ 2 µg/mL)
- MIC [20]: ≥ 63.4 µM
- MIC [21]: 1.98 µM (≈ 4 µg/mL)
- MIC [22]: 15.8 µM (≈ 32 µg/mL)
- MIC [23]: ≥ 63.4 µM
- MIC [24]: 15.8 µM (≈ 32 µg/mL)
- MIC [25]: ≥ 63.4 µM
- MIC [26]: ≥ 63.4 µM
- MIC [27]: ≥ 63.4 µM
- MIC [28]: 31.7 µM (≈ 64 µg/mL)
- MIC [29]: ≥ 63.4 µM
- MIC [30]: 7.92 µM (≈ 16 µg/mL)
- MIC [31]: 15.8 µM (≈ 32 µg/mL)
- MIC [32]: 3.96 µM (≈ 8 µg/mL)
- MIC [33]: 3.96 µM (≈ 8 µg/mL)
- MIC [34]: ≥ 63.4 µM
- MIC [35]: 1.98 µM (≈ 4 µg/mL)
- MIC [36]: ≥ 63.4 µM
- MIC [37]: ≥ 63.4 µM
